The target of one assay is T1, MMP-3 (Homo sapiens, UniProt P08254).
T1 construct: Truncated Prostromelysin-257 was expressed in a soluble form in E.coli; made in house; host or cells: E. coli
Kind of assay: Primary Thiopeptilide MMP-3 Inhibition Assay. The assay is classed as biochemical. Particulars: for pIC50: 13 nM stromelysin, x (n) = average of n determinations; for inhibition at 5 µM: read-out: MMP-3 Thiopep. % inhibition.

The target in another assay is T2, MMP-9 (Homo sapiens, UniProt P14780).
T2 construct: from tissue; host or cells: human polymorphonuclear leukocytes (PMN) from whole blood (New York Blood Center), PMA-stimulated supernatant
T2 sequence (P14780 107-707 limits assumed): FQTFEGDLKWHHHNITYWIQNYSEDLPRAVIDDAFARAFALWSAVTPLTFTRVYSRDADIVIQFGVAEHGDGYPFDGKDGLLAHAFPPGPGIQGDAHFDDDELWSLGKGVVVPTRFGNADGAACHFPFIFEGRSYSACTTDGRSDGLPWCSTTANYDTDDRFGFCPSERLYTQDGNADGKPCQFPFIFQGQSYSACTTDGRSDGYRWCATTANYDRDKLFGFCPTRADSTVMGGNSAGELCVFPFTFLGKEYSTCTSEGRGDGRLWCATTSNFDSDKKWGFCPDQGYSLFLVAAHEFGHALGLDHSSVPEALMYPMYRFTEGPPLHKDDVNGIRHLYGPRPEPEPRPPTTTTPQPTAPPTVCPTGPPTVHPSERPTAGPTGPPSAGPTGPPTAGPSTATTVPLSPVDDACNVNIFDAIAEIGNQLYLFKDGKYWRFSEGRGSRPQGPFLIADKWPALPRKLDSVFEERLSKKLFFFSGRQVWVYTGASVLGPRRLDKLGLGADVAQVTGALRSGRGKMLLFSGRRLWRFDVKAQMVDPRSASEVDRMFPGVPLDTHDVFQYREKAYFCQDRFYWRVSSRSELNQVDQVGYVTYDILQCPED
The assay is described as follows: Thiopeptilide MMP-9 Inhibition Assay. The assay is classed as biochemical. To be noted: for inhibition at 5 µM: read-out: MMP-9: Thiopep. % inhibition.

The mark [1] stands for this setting: pH 6.5, read-out: MMP-3 Thiopep. IC50.
[2] abbreviates: pH 6.5, x (n) = average of n determinations, read-out: MMP-9: Thiopep. IC50.

pIC50: −log10 of the molar value. Like-named read-outs stand apart in the source and are kept apart here.

As usually defined, the pIC50 is the IC50 on a negative log10 scale, so that one unit is a factor of ten. The inhibition is the change of the read-out against control, counted positive when it falls.

T1 sequence (P08254 100-274 limits assumed): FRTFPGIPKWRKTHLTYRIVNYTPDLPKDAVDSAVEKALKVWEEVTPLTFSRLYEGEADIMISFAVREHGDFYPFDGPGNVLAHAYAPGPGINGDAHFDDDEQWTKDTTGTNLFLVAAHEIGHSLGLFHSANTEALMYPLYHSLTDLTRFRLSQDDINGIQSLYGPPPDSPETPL
Protocol for MMP-3: Enzyme: recombinant stromelysin expressed in E.coli and purified as described above. […] The protocols for the assay of compounds as stromelysin inhibitors was the same as that used for MMP-9 except that the assay buffer was 50 mM MES, pH 6.5 containing 150 mM NaCl, 10 mM CaCl2, 0.005% Brij, and 1% DMSO.

As for `O=C(CC(CSCCCc1ccccc1)C(=O)O)c1ccc(-c2ccc(Cl)cc2)cc1` (stereo not drawn) [Example 207, [1,1'-Biphenyl]-4-butanoic acid, 4'-chloro-γ-oxo-α-[[(3-phenylpropyl)thio]methyl]-], the values for the pIC50 on MMP-3 (setting [1]) and on MMP-9 (setting [2]) were 6.74 and 6.54, respectively.
On to `O=C(C[C@H](CCCc1ccccc1)C(=O)O)c1ccc(-c2ccc(Br)cc2)cc1` [Example 178, [1,1'-Biphenyl]-4-butanoic acid, 4'-bromo-γ-oxo-α-(3-phenylpropyl)-, (S)-], for which the values for the pIC50 on MMP-3 (setting [1]) and at MMP-9 (setting [2]) were 6.82 and 6.62, respectively.
For the compound `O=C(CC(CCCc1ccccc1)C(=O)O)c1ccc(-c2ccc(Cl)c(Cl)c2)cc1` (stereo not drawn) [Example 65, [1,1'-Biphenyl]-4-butanoic acid, 3',4'-dichloro-γ-oxo-α-(3-phenylpropyl)-], the pIC50 at MMP-3 (setting [1]) was 6.08. The inhibition at 5 µM on MMP-9 was 47%.
With `CC(C)CC(CC(=O)O)C(=O)c1ccc(-c2ccc(Cl)cc2)cc1` (single isomer, unassigned) [Example 5, 5-methyl-3-[oxo-(4'-chloro-4-biphenyl)methyl]hexanoic acid], the inhibition at 5 µM came to 11% at MMP-3 and 19% at MMP-9.
On to `O=C(O)[C@@H]1[C@@H](C(=O)c2ccc(-c3ccc(Cl)cc3)cc2)CC[C@H]1Sc1ccc(F)cc1` (relative stereo) [Example 309, Cyclopentanecarboxylic acid, 2-[(4'-chloro[1,1'-biphenyl]-4-yl)carbonyl]-5-[(4-fluorophenyl)thio]-, (1α,2β-5β)-], for which the pIC50 was 7.14 at MMP-3 (setting [1]) and 7.21 on MMP-9 (setting [2]).
For the compound `CC(C)CC(CCC(=O)c1ccc(-c2ccc(Cl)cc2)cc1)C(=O)O` (stereo not drawn) [Example 338, [1,1'-Biphenyl]-4-pentanoic acid, 4'-chloro-α-(2-methylpropyl)-δ-oxo-], the inhibition at 5 µM at MMP-3 turned out to be 24%; at MMP-9, 32%.
On to `Cc1ccc(SCC(CC(=O)c2ccc(-c3ccc(Cl)cc3)cc2)C(=O)O)cc1` (stereo not drawn) [Example 211, [1,1'-Biphenyl]-4-butanoic acid, 4'-chloro-α-[[(4-methylphenyl)thio]methyl]-γ-oxo-], for which the figures for the pIC50 on MMP-3 (setting [1]) and on MMP-9 (setting [2]) were 6.36 and 6.55, respectively.
For `COc1cccc(CCC(CC(=O)c2ccc(-c3ccc(Cl)cc3)cc2)C(=O)O)c1` (stereo not drawn) [Example 188, [1,1'-Biphenyl]-4-butanoic acid, 4'-chloro-α-[2-(3-methoxyphenyl)ethyl]-γ-oxo-], the figures for the pIC50 on MMP-3 (setting [1]) and at MMP-9 (setting [2]) were 6.82 and 5.89, respectively.
`Cc1ccc(-c2ccc(C(=O)CC(CC(C)C)C(=O)O)cc2)cc1` (stereo not drawn) [Example 21, [1,1'-Biphenyl]-4-butanoic acid, 4'-methyl-α-(2-methylpropyl)-γ-oxo-]: the pIC50 at MMP-3 (setting [1]) is 6.12; on MMP-9 (setting [2]), 5.92.
On the same counts, the results for `O=C(CC(CSc1ccc(O)cc1)C(=O)O)c1ccc(-c2ccc(Cl)cc2)cc1` (stereo not drawn) [Example 204, [1,1'-Biphenyl]-4-butanoic acid, 4'-chloro-α-[[(4-hydroxyphenyl)thio]methyl]-γ-oxo-] are 6.67 and 6.67.
In the case of `CC(C)C[C@H](CC(=O)c1ccc(-c2ccc(Cl)cc2)cc1)C(=O)O` [Example 3, [1,1'-Biphenyl]-4-butanoic acid, 4'-chloro-α-(2-methylpropyl)-γ-oxo-, (R)-], the inhibition at 5 µM on MMP-3 is 13%; at MMP-9 it was 0%.
Regarding `CC(=O)c1ccc(-c2ccc(Cl)cc2)cc1` [Example 37, Ethanone, 1-(4'-chloro[1,1'-biphenyl]-4-yl)-], the inhibition at 5 µM was 9% at MMP-3 and 0% at MMP-9.
For `CC(C)(C)OC(=O)Nc1ccc(-c2ccc(C(=O)CC(CCCc3ccccc3)C(=O)O)cc2)cc1` (stereo not drawn) [Example 47, [1,1'-Biphenyl]-4-butanoic acid, 4'-[[(1,1-dimethylethoxy)carbonyl]amino]-γ-oxo-α-(3-phenylpropyl)-], on MMP-3 (setting [1]), the pIC50 is 6.25. The inhibition at 5 µM at MMP-9 came to 22%.
On to `O=C(CC(CCCc1ccccc1)C(=O)O)c1ccc(-c2ccc([N+](=O)[O-])cc2)cc1` (stereo not drawn) [Example 63, [1,1'-Biphenyl]-4-butanoic acid, 4'-nitro-γ-oxo-α-(3-phenylpropyl)-], for which the values for the pIC50 on MMP-3 (setting [1]) and at MMP-9 (setting [2]) were 6.01 and 6.30, respectively.
`CC(C)CC(CC(=O)c1ccc(-c2ccc(O)cc2)cc1)C(=O)O` (stereo not drawn) [Example 31, [1,1'-Biphenyl]-4-butanoic acid, 4'-hydroxy-α-(2-methylpropyl)γ-oxo-]: the figures for the inhibition at 5 µM on MMP-3 and at MMP-9 were 56% and 29%, respectively.
With `O=C(CC(CSc1cccc2ccccc12)C(=O)O)c1ccc(-c2ccc(Cl)cc2)cc1` (stereo not drawn) [Example 227, [1,1'-Biphenyl]-4-butanoic acid, 4'-chloro-α-[(1-naphthalenylthio)methyl]-γ-oxo-], the pIC50 at MMP-3 (setting [1]) is 6.66; on MMP-9 (setting [2]) it was 6.44.
For the compound `C[Si](C)(C)CC(CC(=O)c1ccc(-c2ccc(Cl)cc2)cc1)C(=O)O` (stereo not drawn) [Example 133, [1,1'-Biphenyl]-4-butanoic acid, 4'-chloro-γ-oxo-α-[(trimethylsilyl)methyl]-], the pIC50 is 6.19 against MMP-3 (MMP-3 Thiopep. IC50, pH 6.5) and 5.00 against MMP-9.
With `O=C(CC(CCCc1ccccc1)c1nnn[nH]1)c1ccc(-c2ccc(Br)cc2)cc1` (stereo not shown) [Example 344, 1-Hexanone, 1-(4'-bromo[1,1'-biphenyl]-4-yl)-6-phenyl-3-(1H-tetrazol-5-yl)-], the inhibition at 5 µM on MMP-3 was found to be 11%; at MMP-9, 14%.
On to `O=C(CC(CSc1ccc(Cl)cc1)C(=O)O)c1ccc(-c2ccc(Cl)cc2)cc1` (stereo not drawn) [Example 209, [1,1'-Biphenyl]-4-butanoic acid, 4'-chloro-α-[[(4-chlorophenyl)thio]methyl]-γ-oxo-], for which the figures for the pIC50 on MMP-3 (setting [1]) and on MMP-9 (setting [2]) were 6.47 and 6.41, respectively.
Take `O=C(CC(CC#Cc1ccccc1)C(=O)O)c1ccc(-c2ccc(Cl)cc2)cc1` (stereo not drawn) [Example 189, [1,1'-Biphenyl]-4-butanoic acid, 4'-chloro-γ-oxo-α-(3-phenyl-2-propynyl)-]: the values for the pIC50 on MMP-3 (setting [1]) and at MMP-9 (setting [2]) were 6.28 and 6.22, respectively.
Regarding `O=C(CC(CCCCCc1ccccc1)C(=O)O)c1ccc(-c2ccc(Cl)cc2)cc1` (stereo not drawn) [Example 180, [1,1'-Biphenyl]-4-butanoic acid, 4'-chloro-γ-oxo-α-(5-phenylpentyl)-], the pIC50 is 6.57 at MMP-3 (setting [1]) and 6.44 at MMP-9 (setting [2]).
For the compound `O=C(CC(C(=O)O)N1CCSCC1)c1ccc(-c2ccc(Cl)cc2)cc1` (stereo not shown) [Example 259], the pIC50 at MMP-3 (setting [1]) is 5.59. For the same compound, the inhibition at 5 µM at MMP-9 amounted to 37%.
Turning to `Cc1ccccc1S[C@H]1CC[C@@H](C(=O)c2ccc(-c3ccc(Cl)cc3)cc2)[C@H]1C(=O)O` (relative stereo) [Example 305, Cyclopentanecarboxylic acid, 2-[(4'-chloro[1,1'-biphenyl]-4-yl)carbonyl]-5-[(2-methylphenyl)thio]-, (1α,2α,5α)-], the pIC50 at MMP-3 (setting [1]) was 6.33; at MMP-9 (setting [2]), 5.74.
For the compound `C=C(CC(=O)O)C(=O)c1ccc(-c2ccc(Cl)cc2)cc1` [Example 32, [1,1'-Biphenyl]-4-butanoic acid, 4'-chloro-β-methylene-γ-oxo-, reference compound], the inhibition at 5 µM at MMP-3 was 58%. The pIC50 on MMP-9 (setting [2]) is 5.22.
As for `O=C(CC(CCCc1ccccc1)C(=O)O)c1ccc(-c2cc(C(F)(F)F)cc(C(F)(F)F)c2)cc1` (stereo not drawn) [Example 79, [1,1'-Biphenyl]-4-butanoic acid, γ-oxo-α-(3-phenylpropyl)-3',5'-bis(trifluoromethyl)-], the inhibition at 5 µM at MMP-3 turned out to be 12%; on MMP-9 it was 9%.
For the compound `Cc1ccccc1S[C@@H]1CC[C@H](C(=O)c2ccc(-c3ccc(Cl)cc3)cc2)[C@H]1C(=O)O` (relative stereo) [Example 304, Cyclopentanecarboxylic acid, 2-[(4'-chloro[1,1'-biphenyl]-4-yl)carbonyl]-5-[(2-methylphenyl)thio]-, (1α,2β,5α)-], the pIC50 on MMP-3 (setting [1]) is 7.26; at MMP-9 (setting [2]), 7.38.
In the case of `Cc1ccccc1S[C@H]1CC[C@H](C(=O)c2ccc(-c3ccc(Cl)cc3)cc2)[C@H]1C(=O)O` (relative stereo) [Example 306, Cyclopentanecarboxylic acid, 2-[(4'-chloro[1,1'-biphenyl]-4-yl)carbonyl]-5-[(2-methylphenyl)thio]-, (1α,2β,5α)-], the pIC50 at MMP-3 (setting [1]) is 6.82; at MMP-9 (setting [2]), 6.26.
On to `O=C(CC(CSc1cccc(F)c1)C(=O)O)c1ccc(-c2ccc(Cl)cc2)cc1` (stereo not drawn) [Example 243, [1,1'-Biphenyl]-4-butanoic acid, 4'-chloro-α[[(3-fluorophenyl)thio]methyl]-γ-oxo-], for which the pIC50 was 6.44 on MMP-3 (setting [1]) and 6.07 on MMP-9 (setting [2]).
Take `O=C(CC(CSCc1ccccc1)C(=O)O)c1ccc(-c2ccc(Cl)cc2)cc1` (stereo not drawn) [Example 203, [1,1'-Biphenyl]-4-butanoic acid, 4'-chloro-γ-oxo-α-[[(phenylmethyl)thio]methyl]-]: the pIC50 on MMP-3 (setting [1]) was 6.61; on MMP-9 (setting [2]), 5.92.
As to `CCc1ccccc1SCC(CC(=O)c1ccc(-c2ccc(Cl)cc2)cc1)C(=O)O` (stereo not drawn) [Example 220, [1,1'-Biphenyl]-4-butanoic acid, 4'-chloro-α-[[(2-ethylphenyl)thio]methyl]-γ-oxo-], the values for the pIC50 on MMP-3 (setting [1]) and on MMP-9 (setting [2]) were 6.72 and 6.02, respectively.
Consider `CC(C)CC(CC(=O)c1ccc(-c2ccc(Cl)c(Cl)c2)cc1)C(=O)O` (stereo not drawn) [Example 64, [1,1'-Biphenyl]-4-butanoic acid, 3',4'-dichloro-α-(2-methylpropyl)-γ-oxo-], for which the pIC50 at MMP-3 (setting [1]) was 6.52. For the same compound, the inhibition at 5 µM at MMP-9 stood at 29%.
`O=C(CC(CCCCCCc1ccccc1)C(=O)O)c1ccc(-c2ccc(Cl)cc2)cc1` (stereo not drawn) [Example 181, [1,1'-Biphenyl]-4-butanoic acid, 4'-chloro-γ-oxo-α-(6-phenylhexyl)-]: the values for the pIC50 at MMP-3 (setting [1]) and on MMP-9 (setting [2]) were 6.48 and 6.54, respectively.

The record behind these values is US5789434A, “Derivatives of substituted 4-biarylbutyric acid as matrix metalloprotease inhibitors” (priority 1995, dated 1998).
